Assay results as given in the NIST ThermoML archive (doi:10.1016/j.fluid.2010.12.003).

Test: xn = mol fraction of the nth substance listed
Conditions: 101 kPa, Fluid (supercritical or subcritical phases), Taylor dispersion method, x1 = 0

Structure (SMILES) | binary diffusion coefficient (298 K) [m2/s] | binary diffusion coefficient (312 K) [m2/s] | binary diffusion coefficient (332 K) [m2/s] | binary diffusion coefficient (352 K) [m2/s] | binary diffusion coefficient (372 K) [m2/s] | binary diffusion coefficient (392 K) [m2/s] | binary diffusion coefficient (413 K) [m2/s]
O=C(O)c1ccc(O)c(O)c1 [3,4-dihydroxybenzoic acid] + O | 2.46e-10 | 3.2e-10 | 3.84e-10 | 4.15e-10 | 5.12e-10 | 5.27e-10 | 
Oc1cc(O)c2c(c1)O[C@H](c1ccc(O)c(O)c1)[C@H](O)C2 + O | 1.97e-11 | 2.66e-11 | 3.38e-11 | 3.89e-11 | 4.06e-11 | 5.19e-11 | 
COc1cc(-c2[o+]c3cc(O)cc(O)c3cc2O[C@@H]2O[C@H](CO)[C@@H](O)[C@H](O)[C@H]2O)ccc1O.[Cl-] + O | 2.19e-10 | 2.67e-10 | 3.65e-10 | 4.52e-10 | 5.39e-10 | 6.18e-10 | 6.49e-10
O=C(O)c1cc(O)c(O)c(O)c1 [3,4,5-trihydroxybenzoic acid] + O | 2.5e-10 | 2.87e-10 | 3.3e-10 | 4.07e-10 |  |  | 

Results, then the compound that gave them:

binary diffusion coefficient (298 K) [m2/s] | binary diffusion coefficient (312 K) [m2/s] | binary diffusion coefficient (332 K) [m2/s] | binary diffusion coefficient (352 K) [m2/s] | binary diffusion coefficient (372 K) [m2/s] | binary diffusion coefficient (392 K) [m2/s] | binary diffusion coefficient (413 K) [m2/s] | Structure (SMILES)
1.66e-10 | 2.19e-10 | 2.77e-10 | 3.07e-10 | 3.51e-10 |  |  | O=c1c(O[C@@H]2O[C@H]([C@H](O)CO)[C@H](O)[C@H]2O)c(-c2ccc(O)c(O)c2)oc2cc(O)cc(O)c12 [isoquercitrin] + O
2.33e-10 | 3.07e-10 | 3.76e-10 | 4.05e-10 | 4.25e-10 | 4.78e-10 | 5.3e-10 | Oc1cc(O)c2c(c1)O[C@H](c1ccc(O)c(O)c1)[C@@H](O)C2 [(+)-catechin] + O
2.16e-10 | 2.71e-10 | 3.6e-10 | 4.41e-10 | 5.15e-10 | 5.3e-10 | 5.79e-10 | COc1cc(-c2[o+]c3cc(O)cc(O[C@@H]4O[C@H](CO)[C@@H](O)[C@H](O)[C@H]4O)c3cc2O[C@@H]2O[C@H](CO)[C@@H](O)[C@H](O)[C@H]2O)cc(OC)c1O.[Cl-] [malvidin-3,5-diglucoside chloride] + O
